Assay [1] addresses CRBN/DDB1 protein complex (Homo sapiens, UniProt Q96SW2). Put plainly: CRBN displacement TR-FRET assay. Conditions: Thalidomide-Red tracer, 6×His-CRBN/DDB1; read-out: CRBN binding Ki. An outline of the steps: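 Test compound at various concentrations competed with 6.8 nM Thalidomide-Red tracer for 5 nM 6×His-CRBN/DDB1, detected with 0.5 nM anti-His-Eu cryptate in buffer with 1 mM DTT and 1% DMSO. Incubation ran 180 min at room temperature with a time-resolved fluorescence read-out. IC50 values were converted to Ki by Cheng–Prusoff using tracer Kd and protein and tracer concentrations.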
On the technique in general: In TR-FRET formats the signal depends on donor and acceptor labels being close together.

Assay [2] addresses T1, [IKZF2 ZF2]-[compound]-[CRBN/DDB1] ternary complex (Homo sapiens, UniProt Q96SW2+Q9UKS7).
T1 construct: IKZF2 ZF2
Put plainly: AlphaLISA assay for off-target recruitment detection, IKZF2 ZF2. Particulars: 1 μM compound; normalized to Helios modulator; read-out: Normalized ternary complex response, IKZF2 ZF2. In kind it is binding. An outline of the steps:
(§1)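 Neo-substrate with 40 μg/ml donor beads and 200 nM 6×His-CRBN/DDB1 with 40 μg/ml anti-His acceptor beads were each prepared in PBS pH 7.4 with Tween-20 and 1 mM DTT, preincubated 30 min at RT, then mixed. Compounds at 2% DMSO were incubated 30 min at 25 °C, read at 680/615 nm, and normalised between DMSO background and reference glue maximum.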

Assay [3] addresses [GSPT1]-[compound of formula (I)]-[CRBN/DDB1] complex (Homo sapiens, UniProt P15170+Q96SW2). Put plainly: HTRF ternary complex assay (GSPT1). The assay is classed as binding. Particulars: read-out: HTRF ternary complex Average pEC50 by molecule (converted). A digest of the protocol: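 Compounds in dose-response were incubated 180 min at 25 °C with 48 nM GSPT1 and 52.8 nM 6×His-CRBN/DDB1, plus Streptavidin-Eu cryptate and anti-6×His-d2, in buffer with 1 mM DTT and 0.5% DMSO. TR-FRET (665/620) was normalized to DMSO background and fitted with a Hill slope model for EC50/pEC50.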

Assay [4] addresses T2, [IKZF1 ZF2]-[compound]-[CRBN/DDB1] ternary complex (Homo sapiens, UniProt Q13422+Q96SW2).
T2 construct: IKZF1 ZF2
Put plainly: AlphaLISA assay for off-target recruitment detection, IKZF1 ZF2. In kind it is binding. Conditions: 1 μM compound; normalized to Lenalidomide; read-out: Normalized ternary complex response, IKZF1 ZF2. An outline of the steps:
as §1
(In general: Bead proximity is the source of the signal in Alpha formats.)

In assay [5] the target is [CK1α]-[compound]-[CRBN/DDB1] ternary complex (Homo sapiens, UniProt P48729+Q96SW2). Kind of assay: AlphaLISA assay for off-target recruitment detection, CK1α. The assay is classed as binding. Conditions: 1 μM compound; normalized to FPFT-2216; read-out: Normalized ternary complex response, CK1α. An outline of the steps: as §1
[CK1α]-[compound]-[CRBN/DDB1] ternary complex, sequence (P48729 whole entry): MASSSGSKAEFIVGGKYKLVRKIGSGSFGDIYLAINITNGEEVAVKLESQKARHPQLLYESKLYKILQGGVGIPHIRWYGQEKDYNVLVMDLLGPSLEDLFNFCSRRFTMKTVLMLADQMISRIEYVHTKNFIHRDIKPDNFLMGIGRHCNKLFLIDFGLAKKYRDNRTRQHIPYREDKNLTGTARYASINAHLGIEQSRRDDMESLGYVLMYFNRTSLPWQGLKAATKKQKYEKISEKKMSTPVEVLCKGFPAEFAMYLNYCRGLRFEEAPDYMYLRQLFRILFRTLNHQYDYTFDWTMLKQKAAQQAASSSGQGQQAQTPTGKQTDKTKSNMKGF
[CK1α]-[compound]-[CRBN/DDB1] ternary complex, sequence (Q96SW2 whole entry): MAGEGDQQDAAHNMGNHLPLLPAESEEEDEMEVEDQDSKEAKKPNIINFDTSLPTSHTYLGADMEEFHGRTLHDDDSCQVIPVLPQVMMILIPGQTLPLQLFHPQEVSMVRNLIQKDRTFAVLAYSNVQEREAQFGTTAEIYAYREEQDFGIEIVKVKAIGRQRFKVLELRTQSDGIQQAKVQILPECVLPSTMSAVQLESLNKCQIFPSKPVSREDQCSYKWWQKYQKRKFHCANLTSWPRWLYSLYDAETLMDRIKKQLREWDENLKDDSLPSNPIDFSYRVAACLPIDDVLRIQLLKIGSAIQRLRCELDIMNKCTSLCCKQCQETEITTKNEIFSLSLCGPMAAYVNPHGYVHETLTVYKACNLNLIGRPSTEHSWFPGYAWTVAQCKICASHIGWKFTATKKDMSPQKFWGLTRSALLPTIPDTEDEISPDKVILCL
[CK1α]-[compound]-[CRBN/DDB1] ternary complex, sequence (Q16531 whole entry partner): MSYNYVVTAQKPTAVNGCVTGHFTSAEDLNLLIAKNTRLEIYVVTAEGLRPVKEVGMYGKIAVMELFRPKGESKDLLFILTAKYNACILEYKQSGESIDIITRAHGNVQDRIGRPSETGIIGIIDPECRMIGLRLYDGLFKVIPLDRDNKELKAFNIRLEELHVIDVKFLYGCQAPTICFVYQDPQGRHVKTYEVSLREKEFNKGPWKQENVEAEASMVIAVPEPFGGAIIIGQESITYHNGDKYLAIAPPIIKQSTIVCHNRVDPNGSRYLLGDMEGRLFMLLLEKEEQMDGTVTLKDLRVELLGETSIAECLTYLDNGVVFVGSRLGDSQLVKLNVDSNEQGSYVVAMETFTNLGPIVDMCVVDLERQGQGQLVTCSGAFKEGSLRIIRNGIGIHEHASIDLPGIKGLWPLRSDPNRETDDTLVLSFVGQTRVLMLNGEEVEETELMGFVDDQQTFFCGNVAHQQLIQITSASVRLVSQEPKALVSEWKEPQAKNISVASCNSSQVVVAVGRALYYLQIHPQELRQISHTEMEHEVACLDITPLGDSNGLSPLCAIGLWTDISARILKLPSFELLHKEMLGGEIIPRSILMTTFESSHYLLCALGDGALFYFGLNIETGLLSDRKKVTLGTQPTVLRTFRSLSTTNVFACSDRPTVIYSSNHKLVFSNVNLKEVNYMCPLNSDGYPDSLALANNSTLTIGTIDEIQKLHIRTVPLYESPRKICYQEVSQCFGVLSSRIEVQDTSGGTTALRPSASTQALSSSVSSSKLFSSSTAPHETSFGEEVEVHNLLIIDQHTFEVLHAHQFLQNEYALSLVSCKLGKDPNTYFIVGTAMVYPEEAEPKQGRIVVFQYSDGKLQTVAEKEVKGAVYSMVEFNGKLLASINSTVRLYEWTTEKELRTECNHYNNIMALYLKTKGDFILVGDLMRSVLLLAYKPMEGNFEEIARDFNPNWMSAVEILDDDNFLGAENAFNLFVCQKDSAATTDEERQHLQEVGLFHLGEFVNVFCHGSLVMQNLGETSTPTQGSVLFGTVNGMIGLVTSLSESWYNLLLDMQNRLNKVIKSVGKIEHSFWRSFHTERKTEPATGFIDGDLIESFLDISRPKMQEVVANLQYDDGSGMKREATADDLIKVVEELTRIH
The next assay concerns GSPT1-HiBiT HEK293 cells. Kind of assay: Cell Viability-CTG assay accompanying the Nano-Glo HiBiT assay. The assay is classed as cell-based. Conditions: 6 hours treatment, viability of GSPT1-HiBiT HEK293 cells. On the procedure: In parallel, the Cell Viability-CTG assay was performed to ensure that the potential decrease of the luminescent signal observed in the Nano-Glo HiBiT assay is a result of protein degradation and not a result of decreasing cell viability. For CTG assay accompanying the Nano-Glo HiBiT assay, cells were cultured, seeded and treated as described above. After 6 hours of incubation (37° C., 5% CO2), plates were removed from the incubator and let to equilibrate to RT. Luminescent signal detection was conducted using the CellTiter-Glo Lumiescent Cell Viability Assay (Promega, cat. nr G7573). 10 μL of the Cell Titer Glo reagent was added per well, plates were shaken to facilitate lysis (460 rpm, 4 min, RT) and incubated in the dark for the following 8 min. Luminescence was read using the CLARIOstar multimode plate reader (BMG LABTECH). The raw data (the relative luminescence unit values, RLU) were uploaded under the relevant protocol and analysed in CDDVault data management platform, in a manner similar to the description above. The Mean Minimum values were calculated in CDDVault using non-linear regression and appropriate equations.
(With HiBiT, luminescence reflects the tagged protein that the partner subunit can reach.)

Results on 14 molecules are retold here after patent US20260232682A1, “GSPT1 DEGRADER COMPOUNDS” (Captor Therapeutics S.A., priority 2023, published 2026).

In general, Ki refers to the dissociation constant of the complex between target and ligand, obtained from inhibition or displacement.

T2 sequence (Q13422 145-167 limits assumed): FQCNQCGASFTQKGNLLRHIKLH
T2 sequence (Q96SW2 whole entry): as the sequence (Q96SW2 whole entry) above
T2 sequence (Q16531 whole entry partner): as the sequence (Q16531 whole entry partner) above
CRBN/DDB1 protein complex, sequence (Q96SW2 whole entry, species assumed): as the sequence (Q96SW2 whole entry) above
CRBN/DDB1 protein complex, sequence (Q16531 whole entry partner, species assumed): as the sequence (Q16531 whole entry partner) above
T1 sequence (Q9UKS7 140-162 limits assumed): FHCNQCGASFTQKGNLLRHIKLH
T1 sequence (Q96SW2 whole entry): as the sequence (Q96SW2 whole entry) above
T1 sequence (Q16531 whole entry partner): as the sequence (Q16531 whole entry partner) above
[GSPT1]-[compound of formula (I)]-[CRBN/DDB1] complex, sequence (P15170 whole entry): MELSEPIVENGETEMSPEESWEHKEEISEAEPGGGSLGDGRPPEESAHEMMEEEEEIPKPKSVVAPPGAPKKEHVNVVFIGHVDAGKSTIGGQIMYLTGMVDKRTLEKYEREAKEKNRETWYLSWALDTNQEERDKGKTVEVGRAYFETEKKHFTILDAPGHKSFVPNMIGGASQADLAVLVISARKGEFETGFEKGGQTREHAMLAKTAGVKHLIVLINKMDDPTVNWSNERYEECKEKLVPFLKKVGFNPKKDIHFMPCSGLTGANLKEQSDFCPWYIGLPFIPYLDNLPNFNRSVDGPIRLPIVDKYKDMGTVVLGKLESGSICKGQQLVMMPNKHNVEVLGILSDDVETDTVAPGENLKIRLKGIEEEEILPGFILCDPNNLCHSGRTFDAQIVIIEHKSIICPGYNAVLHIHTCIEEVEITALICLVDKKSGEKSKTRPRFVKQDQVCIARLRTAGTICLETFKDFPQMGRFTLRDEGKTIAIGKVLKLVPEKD
[GSPT1]-[compound of formula (I)]-[CRBN/DDB1] complex, sequence (Q96SW2 whole entry): as the sequence (Q96SW2 whole entry) above
[GSPT1]-[compound of formula (I)]-[CRBN/DDB1] complex, sequence (Q16531 whole entry partner): as the sequence (Q16531 whole entry partner) above

Consider `Cc1nc2cc(COC(=O)Nc3ccc(C(C)(C)C)cc3)ccc2cc1C1CCC(=O)NC1=O` (stereo not drawn) [Compound 8, (3-(2,6-dioxopiperidin-3-yl)-2-methylquinolin-7-yl)methyl (4-(tert-butyl)phenyl)carbamate], for which the Ki in assay [1] is below 500 nM. Also, the activation at 1 µM in assay [2], in assay [4] and in assay [5] was below 10% in each case. In assay [3], the EC50 is 316 to 3160 nM. Further, in the assay with GSPT1-HiBiT HEK293 cells, the “CTG assay Mean minimum” value was “++++ (++++≥75% of viability of the HiBiT-GSPT1 HEK293 cells)”.
As for `COc1ccc(NC(=O)OCc2ccc3cc(C4CCC(=O)NC4=O)c(C)nc3c2)nn1` (stereo not drawn) [Compound 45, (3-(2,6-dioxopiperidin-3-yl)-2-methylquinolin-7-yl)methyl (6-methoxypyridazin-3-yl)carbamate], the inhibitory constant (Ki) in assay [1] was above 1000 nM. In addition, the activation at 1 µM in assay [2], in assay [4] and in assay [5] was below 10% throughout. Moreover, the EC50 in assay [3] is 316 to 3160 nM. In addition, the “CTG assay Mean minimum” value in the assay with GSPT1-HiBiT HEK293 cells is “++++ (++++≥75% of viability of the HiBiT-GSPT1 HEK293 cells)”.
In the case of `Cc1nc2cc(COC(=O)Nc3nc(C(C)(C)C)no3)ccc2cc1C1CCC(=O)NC1=O` (stereo not drawn) [Compound 80, (3-(2,6-dioxopiperidin-3-yl)-2-methylquinolin-7-yl)methyl (3-(tert-butyl)-1,2,4-oxadiazol-5-yl)carbamate], the Ki in assay [1] lay in the range of 500 to 1000 nM. Moreover, the activation at 1 µM in assay [2], in assay [4] and in assay [5] was below 10% in each case. In assay [3], the EC50 is 316 to 3160 nM. In addition, the “CTG assay Mean minimum” value in the assay with GSPT1-HiBiT HEK293 cells is reported as “++++ (++++≥75% of viability of the HiBiT-GSPT1 HEK293 cells)”.
On to `Cc1ccc(NC(=O)OCc2ccc3cc([C@@H]4CCC(=O)NC4=O)c(C)nc3c2)cc1Cl` [Compound 38, (3-(2,6-dioxopiperidin-3-yl)-2-methylquinolin-7-yl)methyl (3-chloro-4-methylphenyl)carbamate], for which the Ki in assay [1] was above 1000 nM. Besides, the activation at 1 µM in assay [2], in assay [4] and in assay [5] was below 10% throughout. Moreover, the EC50 in assay [3] was 316 to 3160 nM. For the same molecule, the “CTG assay Mean minimum” value in the assay with GSPT1-HiBiT HEK293 cells is listed as “++++ (++++≥75% of viability of the HiBiT-GSPT1 HEK293 cells)”.
As to `Cc1ccc(NC(=O)NCc2ccc3nc(C)c(N4CCC(=O)NC4=O)cc3c2)cc1Cl` [Compound 51, 1-(3-chloro-4-methylphenyl)-3-((3-(2,4-dioxotetrahydropyrimidin-1(2H)-yl)-2-methylquinolin-6-yl)methyl)urea], in assay [1], the Ki is below 500 nM. The activation at 1 µM is 10 to 25% in assay [2], 25 to 50% in assay [4] and below 10% in assay [5]. Further, the EC50 in assay [3] is below 316 nM. Further, the “CTG assay Mean minimum” value in the assay with GSPT1-HiBiT HEK293 cells is recorded as “++++ (++++≥75% of viability of the HiBiT-GSPT1 HEK293 cells)”.
In the case of `COc1cnc(NC(=O)OCc2ccc3cc(C4CCC(=O)NC4=O)c(C)nc3c2)cn1` (stereo not drawn) [Compound 59, (3-(2,6-dioxopiperidin-3-yl)-2-methylquinolin-7-yl)methyl (5-methoxypyrazin-2-yl)carbamate], the inhibition constant (Ki) in assay [1] was below 500 nM. Also, the activation at 1 µM in assay [2], in assay [4] and in assay [5] was below 10% throughout. Also, in assay [3], the EC50 was below 316 nM. Moreover, the “CTG assay Mean minimum” value with GSPT1-HiBiT HEK293 cells was “++++ (++++≥75% of viability of the HiBiT-GSPT1 HEK293 cells)”.
Consider `Cc1nc2cc(COC(=O)Nc3ccc(-c4ccccc4)nc3)ccc2cc1C1CCC(=O)NC1=O` (stereo not drawn) [Compound 20, (3-(2,6-dioxopiperidin-3-yl)-2-methylquinolin-7-yl)methyl (6-phenylpyridin-3-yl)carbamate], for which the inhibition constant (Ki) in assay [1] was below 500 nM. Moreover, the activation at 1 µM in assay [2], in assay [4] and in assay [5] was below 10% each time. Also, in assay [3], the EC50 is below 316 nM. Further, the “CTG assay Mean minimum” value with GSPT1-HiBiT HEK293 cells is “++++ (++++≥75% of viability of the HiBiT-GSPT1 HEK293 cells)”.
Take `Cc1nc2cc(COC(=O)NC3CCC(C(C)(C)C)CC3)ccc2cc1C1CCC(=O)NC1=O` (stereo not drawn) [Compound 55, (3-(2,6-dioxopiperidin-3-yl)-2-methylquinolin-7-yl)methyl (4-(tert-butyl)cyclohexyl)carbamate]: the inhibitory constant (Ki) in assay [1] lay within 500 to 1000 nM. In addition, the activation at 1 µM in assay [2], in assay [4] and in assay [5] was below 10% in each case. The EC50 in assay [3] is 316 to 3160 nM. Further, in the assay with GSPT1-HiBiT HEK293 cells, the “CTG assay Mean minimum” value was “++++ (++++≥75% of viability of the HiBiT-GSPT1 HEK293 cells)”.
Turning to `Cc1nc2cc(COC(=O)Nc3cc(C(C)(C)C)on3)ccc2cc1C1CCC(=O)NC1=O` (stereo not drawn) [Compound 70, (3-(2,6-dioxopiperidin-3-yl)-2-methylquinolin-7-yl)methyl (5-(tert-butyl)isoxazol-3-yl)carbamate], the inhibition constant (Ki) in assay [1] is below 500 nM. Moreover, the activation at 1 µM in assay [2], in assay [4] and in assay [5] was below 10% each time. For the same molecule, in assay [3], the EC50 was below 316 nM. In addition, the “CTG assay Mean minimum” value in the assay on GSPT1-HiBiT HEK293 cells is “++++ (++++≥75% of viability of the HiBiT-GSPT1 HEK293 cells)”.
Consider `Cc1nc2cc(COC(=O)Nc3ccc(C(F)(F)F)c(Cl)c3)ccc2cc1C1CCC(=O)NC1=O` (stereo not drawn) [Compound 18, (3-(2,6-dioxopiperidin-3-yl)-2-methylquinolin-7-yl)methyl (3-chloro-4-(trifluoromethyl)phenyl)carbamate], for which the inhibition constant (Ki) in assay [1] was in the range of 500 to 1000 nM. Besides, the activation at 1 µM in assay [2], in assay [4] and in assay [5] was below 10% throughout. Further, the EC50 in assay [3] is 316 to 3160 nM. The “CTG assay Mean minimum” value in the assay with GSPT1-HiBiT HEK293 cells is “++++ (++++≥75% of viability of the HiBiT-GSPT1 HEK293 cells)”.
In the case of `Cc1ccc(NC(=O)OCc2ccc3cc(C4CCC(=O)NC4=O)c(C)nc3c2)cc1Cl` (stereo not drawn) [Compound 4, (3-(2,6-dioxopiperidin-3-yl)-2-methylquinolin-7-yl)methyl (3-chloro-4-methylphenyl)carbamate], the Ki in assay [1] was in the range of 500 to 1000 nM. Further, the activation at 1 µM in assay [2], in assay [4] and in assay [5] was below 10% in each case. The EC50 in assay [3] is 316 to 3160 nM. In the assay on GSPT1-HiBiT HEK293 cells, the “CTG assay Mean minimum” value is “++++ (++++≥75% of viability of the HiBiT-GSPT1 HEK293 cells)”.
As for `COc1ccc(NC(=O)OCc2ccc3cc(C4CCC(=O)NC4=O)c(C)nc3c2)cc1Cl` (stereo not drawn) [Compound 11, (3-(2,6-dioxopiperidin-3-yl)-2-methylquinolin-7-yl)methyl (3-chloro-4-methoxyphenyl)carbamate], the Ki in assay [1] is above 1000 nM. For the same molecule, the activation at 1 µM in assay [2], in assay [4] and in assay [5] was below 10% throughout. Further, the EC50 in assay [3] was 316 to 3160 nM. In the assay on GSPT1-HiBiT HEK293 cells, the “CTG assay Mean minimum” value is “++++ (++++≥75% of viability of the HiBiT-GSPT1 HEK293 cells)”.
As for `Cc1nc2cc(COC(=O)Nc3cc(C(F)(F)F)no3)ccc2cc1C1CCC(=O)NC1=O` (stereo not drawn) [Compound 71, (3-(2,6-dioxopiperidin-3-yl)-2-methylquinolin-7-yl)methyl (3-(trifluoromethyl)isoxazol-5-yl)carbamate], the inhibition constant (Ki) in assay [1] is above 1000 nM. Moreover, the activation at 1 µM in assay [2], in assay [4] and in assay [5] was below 10% in each case. In addition, the EC50 in assay [3] was above 3160 nM. Also, in the assay on GSPT1-HiBiT HEK293 cells, the “CTG assay Mean minimum” value is “++++ (++++≥75% of viability of the HiBiT-GSPT1 HEK293 cells)”.
Turning to `Cc1nc2cc(COC(=O)Nc3cc(C(F)(F)F)n[nH]3)ccc2cc1C1CCC(=O)NC1=O` (stereo not drawn) [Compound 69, (3-(2,6-dioxopiperidin-3-yl)-2-methylquinolin-7-yl)methyl (3-(trifluoromethyl)-1H-pyrazol-5-yl)carbamate], the Ki in assay [1] is above 1000 nM. For the same molecule, the activation at 1 µM in assay [2], in assay [4] and in assay [5] was below 10% each time. The EC50 in assay [3] is 316 to 3160 nM. Besides, the “CTG assay Mean minimum” value with GSPT1-HiBiT HEK293 cells is on record as “++++ (++++≥75% of viability of the HiBiT-GSPT1 HEK293 cells)”.
